These results are taken from US20100022531A1, “NOVEL COMPOUNDS AS P2X7 MODULATORS AND USES THEREOF” (RENOVIS, INC., priority 2005, published 2010).

The first experiment addresses T1, P2X7 receptor (Homo sapiens, UniProt Q99572).
T1 construct: host or cells: THP-1 cells differentiated with LPS and IFN-γ
T1 sequence (Q99572 1-595): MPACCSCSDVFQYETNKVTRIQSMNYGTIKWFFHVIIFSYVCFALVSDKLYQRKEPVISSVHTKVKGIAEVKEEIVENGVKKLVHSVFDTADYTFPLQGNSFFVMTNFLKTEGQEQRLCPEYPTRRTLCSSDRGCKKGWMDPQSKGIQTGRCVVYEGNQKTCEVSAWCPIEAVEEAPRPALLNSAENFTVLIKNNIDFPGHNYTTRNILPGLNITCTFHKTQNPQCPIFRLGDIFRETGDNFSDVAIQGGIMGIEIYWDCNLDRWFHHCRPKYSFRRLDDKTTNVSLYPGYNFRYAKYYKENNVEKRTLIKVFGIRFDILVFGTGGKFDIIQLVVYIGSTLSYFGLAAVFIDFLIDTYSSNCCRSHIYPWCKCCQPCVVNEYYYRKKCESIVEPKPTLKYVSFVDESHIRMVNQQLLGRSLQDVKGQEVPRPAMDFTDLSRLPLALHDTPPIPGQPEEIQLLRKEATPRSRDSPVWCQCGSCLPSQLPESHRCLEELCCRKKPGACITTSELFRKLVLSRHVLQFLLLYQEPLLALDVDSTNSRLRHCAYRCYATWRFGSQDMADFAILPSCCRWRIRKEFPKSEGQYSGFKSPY
The experiment can be described thus: Alternate method for IL-1β release assay (differentiated THP-1 cells, BzATP-stimulated, ELISA). The format is cell-based. The note with it: P2X7, read-out: IL-1β % inhib @ 0.3 μM. On the procedure:
Alternate Method for IL-1β Release Assay
THP-1 cells (ATCC Cat #285-IF-100) are plated in 96 well plates at a concentration of 200,000 cells per well and allowed to differentiate in RPMI-1640 media (ATCC Cat #30-2001) containing 10% FBS, 100 IU/mL penicillin, 100 ug/mL streptomycin, 100 ng/mL LPS and 100 ng/mL IFN-γ for 16 hours. Following differentiation, the cells are treated for an additional 2 hours in RPMI-1640 media containing 100 IU/mL penicillin, 100 ug/mL streptomycin and fresh LPS at 100 ng/mL. The cells are then pretreated for 30 minutes with the compound of interest at the appropriate concentration in RPMI media containing 100 IU/mL penicillin, 100 ug/mL streptomycin. Following the pretreatment 2′,3′-O-(4-benzoylbenzoyl)-adenosine 5′-triphosphate (Sigma Aldrich Cat# B6396) is added to a final concentration of 250 uM and the cells incubated for an additional 45 minutes. 30 uL of cell supernatant is then collected and IL-1β levels determined via ELISA (R&D systems Cat. # HSLB50) according to manufacturers recommendations using the Tecan Safire plate reader. Background adjusted IL-1β levels of drug treated and non-treated cells are used to calculate the percent inhibition.
(An ELISA detects its analyte on a solid surface through an enzyme-linked reagent.)
Regarding `O=C(CN1CCCCC1)N1CCc2c(ncnc2NCC23CC4CC(CC(C4)C2)C3)C1` [Compound 266], the inhibition at 0.3 µM fell in the range of 0 to 25%.

The same experiment, now with this note: P2X7; 0.1 μM compound (plus symbols); read-out: IL-1β % inhib @ 0.1 μM.
As for `O=C(c1ccno1)N1CCc2c(ncnc2NCC23CC4CC(CC(C4)C2)C3)C1` [Compound 149], the inhibition at 0.1 µM is more than 75%.

With `O=C(C1CC1)N1CCc2c(ncnc2NCC23CC4CC(CC(C4)C2)C3)C1` [Compound 115, 4-[(Adamantan-1-ylmethyl)-amino]-5,8-dihydro-6H-pyrido[3,4-d]pyrimidin-7-yl-cyclopropyl-methanone], the inhibition at 0.1 µM was more than 75%.

Staying with this experiment, now noted: P2X7; 0.1 μM compound (symbols + to ++++); read-out: IL-1β % inhib @ 0.1 μM.
On to `O=C(O[C@@H]1CCOC1)N1CCc2c(ncnc2NCC23CC4CC(CC(C4)C2)C3)C1` [Compound 250, 4-[(Adamantan-1-ylmethyl)-amino]-5,8-dihydro-6H-pyrido[3,4-d]pyrimidine-7-carboxylic acid (R)-(tetrahydro-furan-3-yl)ester], for which the inhibition at 0.1 µM was in the range of 0 to 25%.

In the case of `O=C(OCc1cncs1)N1CCc2c(ncnc2NCC23CC4CC(CC(C4)C2)C3)C1` [Compound 349], the inhibition at 0.1 µM fell in the range of 0 to 25%.

Take `O=C(c1cccnc1)N1CCc2c(ncnc2NCC23CC4CC(CC(O)(C4)C2)C3)C1` [Compound 350, {4-[(3-Hydroxy-adamantan-1-ylmethyl)-amino]-5,8-dihydro-6H-pyrido[3,4-d]pyrimidin-7-yl}-pyridin-3-yl-methanone]: the inhibition at 0.1 µM was in the range of 25 to 50%.

Turning to `O=C(SCc1ccc(F)cc1)N1CCc2c(ncnc2NCC23CC4CC(CC(C4)C2)C3)C1` [Compound 335], the inhibition at 0.1 µM was in the range of 0 to 25%.

In the case of `c1cc(CN2CCc3c(ncnc3NCC34CC5CC(CC(C5)C3)C4)C2)c2c(c1)OCO2` [Compound 207], the inhibition at 0.1 µM is more than 75%.

As for `O=C(OCc1cnccn1)N1CCc2c(ncnc2NCC23CC4CC(CC(C4)C2)C3)C1` [Compound 348], the inhibition at 0.1 µM was in the range of 25 to 50%.

Staying with this experiment, now noted: P2X7; 0.3 μM compound (asterisk symbols); read-out: IL-1β % inhib @ 0.3 μM.
Take `COc1ccc(CC(=O)N2CCc3c(ncnc3NCC34CC5CC(CC(C5)C3)C4)C2)cc1` [Compound 80]: the inhibition at 0.3 µM was more than 75%.

For the compound `O=S(=O)(c1cccc2cccnc12)N1CCc2c(ncnc2NCC23CC4CC(CC(C4)C2)C3)C1` [Compound 7], the inhibition at 0.3 µM was more than 75%.

Take `Cc1ccc(S(=O)(=O)N2CCc3c(ncnc3NCC34CC5CC(CC(C5)C3)C4)C2)cc1` [Compound 5]: the inhibition at 0.3 µM fell in the range of 50 to 75%.

For `c1ccc(CCCN2CCc3c(ncnc3NCC34CC5CC(CC(C5)C3)C4)C2)cc1` [Compound 170], the inhibition at 0.3 µM fell in the range of 0 to 25%.

With `O=S(=O)(c1ccc(C(F)(F)F)cc1)N1CCc2c(ncnc2NCC23CC4CC(CC(C4)C2)C3)C1` [Compound 58], the inhibition at 0.3 µM fell in the range of 0 to 25%.

For the compound `O=S(=O)(c1cc(Cl)cc(Cl)c1)N1CCc2c(ncnc2NCC23CC4CC(CC(C4)C2)C3)C1` [Compound 65], the inhibition at 0.3 µM lay within 0 to 25%.

As for `O=C(C(c1ccccc1)c1ccccc1)N1CCc2c(ncnc2NCC23CC4CC(CC(C4)C2)C3)C1` [Compound 92], the inhibition at 0.3 µM fell in the range of 0 to 25%.

For the compound `Cc1ccccc1C(=O)N1CCc2c(ncnc2NCC23CC4CC(CC(C4)C2)C3)C1` [Compound 133], the inhibition at 0.3 µM is 25 to 50%.

As for `O=C(Cc1ccccc1Br)N1CCc2c(ncnc2NCC23CC4CC(CC(C4)C2)C3)C1` [Compound 153], the inhibition at 0.3 µM lay within 0 to 25%.

As to `CCC(CC)CN1CCc2c(ncnc2NCC23CC4CC(CC(C4)C2)C3)C1` [Compound 192], the inhibition at 0.3 µM is more than 75%.

Regarding `O=S(=O)(Cc1cc(Cl)cc(Cl)c1)N1CCc2c(ncnc2NCC23CC4CC(CC(C4)C2)C3)C1` [Compound 42], the inhibition at 0.3 µM lay within 25 to 50%.

As to `Cc1ccc2occ(CN3CCc4c(ncnc4NCC45CC6CC(CC(C6)C4)C5)C3)c(=O)c2c1` [Compound 178], the inhibition at 0.3 µM lay within 25 to 50%.

Consider `Cc1ccc(F)cc1S(=O)(=O)N1CCc2c(ncnc2NCC23CC4CC(CC(C4)C2)C3)C1` [Compound 69], for which the inhibition at 0.3 µM fell in the range of 0 to 25%.

As for `Cc1nc(S(=O)(=O)N2CCc3c(ncnc3NCC34CC5CC(CC(C5)C3)C4)C2)cn1C` [Compound 22], the inhibition at 0.3 µM fell in the range of 0 to 25%.

For `O=S(=O)(Cc1ccccc1)N1CCc2c(ncnc2NCC23CC4CC(CC(C4)C2)C3)C1` [Compound 14], the inhibition at 0.3 µM was more than 75%.

For the compound `CS(=O)(=O)N1CCc2c(ncnc2NCC23CC4CC(CC(C4)C2)C3)C1` [Compound 3], the inhibition at 0.3 µM lay in the range of 25 to 50%.

With `O=S(=O)(c1ccc(-n2cccn2)cc1)N1CCc2c(ncnc2NCC23CC4CC(CC(C4)C2)C3)C1` [Compound 52], the inhibition at 0.3 µM lay within 0 to 25%.

On to `O=C(c1c(F)cccc1Cl)N1CCc2c(ncnc2NCC23CC4CC(CC(C4)C2)C3)C1` [Compound 127], for which the inhibition at 0.3 µM was more than 75%.

For the compound `CCCCCN1CCc2c(ncnc2NCC23CC4CC(CC(C4)C2)C3)C1` [Compound 169], the inhibition at 0.3 µM is more than 75%.

On to `O=C(c1cc(F)cc(C(F)(F)F)c1)N1CCc2c(ncnc2NCC23CC4CC(CC(C4)C2)C3)C1` [Compound 122], for which the inhibition at 0.3 µM was in the range of 0 to 25%.

On to `Cc1noc(C)c1S(=O)(=O)N1CCc2c(ncnc2NCC23CC4CC(CC(C4)C2)C3)C1` [Compound 26], for which the inhibition at 0.3 µM was in the range of 50 to 75%.

For `O=C(c1ccc(F)cc1F)N1CCc2c(ncnc2NCC23CC4CC(CC(C4)C2)C3)C1` [Compound 132], the inhibition at 0.3 µM fell in the range of 50 to 75%.

With `CC(=O)N1CCC(C(=O)N2CCc3c(ncnc3NCC34CC5CC(CC(C5)C3)C4)C2)CC1` [Compound 148], the inhibition at 0.3 µM fell in the range of 0 to 25%.

Regarding `COc1ccc(C(=O)N2CCc3c(ncnc3NCC34CC5CC(CC(C5)C3)C4)C2)cc1OC` [Compound 159], the inhibition at 0.3 µM is more than 75%.

Still in this experiment, the particulars now being: P2X7; 0.3 μM compound (symbols * to ****); read-out: IL-1β % inhib @ 0.3 μM.
For `Clc1ccc(CN2CCc3c(ncnc3NCC34CC5CC(CC(C5)C3)C4)C2)cc1Cl` [Compound 201], the inhibition at 0.3 µM fell in the range of 0 to 25%.

With `Brc1cc2c(cc1CN1CCc3c(ncnc3NCC34CC5CC(CC(C5)C3)C4)C1)OCO2` [Compound 198], the inhibition at 0.3 µM fell in the range of 0 to 25%.

As to `CN(CC(=O)N1CCc2c(ncnc2NCC2C3CC4CC(C3)CC2C4)C1)Cc1ccco1` (stereo not drawn) [Compound 295], the inhibition at 0.3 µM was in the range of 0 to 25%.

For the compound `CC12CC3(C)CC(C)(C1)CC(CNc1ncnc4c1CCN(Cc1ccccc1)C4)(C2)C3` [Compound 247], the inhibition at 0.3 µM lay within 25 to 50%.

Regarding `CN1CCC(N(C)CC(=O)N2CCc3c(ncnc3NCC3C4CC5CC(C4)CC3C5)C2)C1` (stereo not drawn) [Compound 314], the inhibition at 0.3 µM is 0 to 25%.

On to `Clc1ccc(CN2CCc3c(ncnc3NCC34CC5CC(CC(C5)C3)C4)C2)cc1` [Compound 212], for which the inhibition at 0.3 µM is more than 75%.

As for `COc1cccc(CN2CCc3c(ncnc3NCC34CC5CC(CC(C5)C3)C4)C2)c1OC` [Compound 202], the inhibition at 0.3 µM was more than 75%.

For `Fc1cc(CN2CCc3c(ncnc3NCC34CC5CC(CC(C5)C3)C4)C2)ccc1Cl` [Compound 222], the inhibition at 0.3 µM is more than 75%.

`Cc1ccc(CN(C)CC(=O)N2CCc3c(ncnc3NCC3C4CC5CC(C4)CC3C5)C2)cc1` (stereo not drawn) [Compound 318]: the inhibition at 0.3 µM lay in the range of 25 to 50%.

Turning to `COc1cc(F)c(CN2CCc3c(ncnc3NCC34CC5CC(CC(C5)C3)C4)C2)c(F)c1` [Compound 235], the inhibition at 0.3 µM fell in the range of 0 to 25%.

With `CCN(CC(=O)N1CCc2c(ncnc2NCC2C3CC4CC(C3)CC2C4)C1)Cc1ccncc1` (stereo not drawn) [Compound 268], the inhibition at 0.3 µM was in the range of 50 to 75%.

Consider `CC(C)N1CCN(CC(=O)N2CCc3c(ncnc3NCC3C4CC5CC(C4)CC3C5)C2)CC1` (stereo not drawn) [Compound 285], for which the inhibition at 0.3 µM was 0 to 25%.

Turning to `Fc1cc(Cl)ccc1CN1CCc2c(ncnc2NCC23CC4CC(CC(C4)C2)C3)C1` [Compound 246], the inhibition at 0.3 µM was more than 75%.

For `Cc1cccc(CN2CCc3c(ncnc3NCC34CC5CC(CC(C5)C3)C4)C2)c1` [Compound 217], the inhibition at 0.3 µM was more than 75%.

The same experiment, now with this note: P2X7; at 0.03 μM (asterisk symbols); read-out: IL-1β % inhib @ 0.3 μM or @ 0.03 μM.
Take `C[C@H](NC(=O)OC(C)(C)C)C(=O)N1CCc2c(ncnc2NCC(O)C23CC4CC(CC(C4)C2)C3)C1` (stereo partly drawn) [Compound 708, {(S)-2-[4-(2-Adamantan-1-yl-2-hydroxy-ethylamino)-5,8-dihydro-6H-pyrido[3,4-d]pyrimidin-7-yl]-1-methyl-2-oxo-ethyl}-carbamic acid tert-butyl ester]: the inhibition at 0.03 µM lay in the range of 50 to 75%.
